Reference: patent publication US9884860B2, “Fused pyrroledicarboxamides and their use as pharmaceuticals” (SANOFI, priority 2012, dated 2018)

Biological target: Human TASK-1 channels (Homo sapiens (Human), UniProt O14649)
Assay: Determination of the activity on the TASK-1 channel in Xenopus oocytes (two-microelectrode voltage clamp)
Format: cell-based
Settings: compound concentration 5 μM
Procedure: Determination of the activity on the TASK-1 channel in Xenopus oocytes
Human TASK-1 channels were expressed in Xenopus oocytes. For this purpose, oocytes were isolated from Xenopus laevis and defoliculated. Subsequently, TASK-1-encoding RNA synthesized in vitro was injected into the oocytes. After two days of TASK-1 protein expression, TASK-1 currents were measured by two-microelectrode voltage clamp. Data were acquired and analyzed using a TEC-10cx amplifier (NPI Electronic, Tamm, Germany) connected to an ITC-16 interface (Instrutech Corp., Long island, USA) and Pulse software (HEKA Elektronik, Lambrecht, Germany). Oocytes were clamped to −90 mV and TASK-1 mediated currents were measured during 500 ms voltage pulses to 40 mV. Oocytes were continuously superfused with ND96 buffer containing 98 mM sodium chloride, 2 mM potassium chloride, 1.8 mM calcium chloride, 1 mM magnesium chloride, 5 mM 4-(2-hydroxyethyl)-piperazine-1-ethanesulfonic acid (HEPES: pH adjusted to 7.4 with sodium hydroxide). All experiments were performed at room temperature. Test compounds were consecutively added to the bath solution at rising concentrations. Compound effects were calculated as the percentage inhibition of TASK-1 control current before compound addition. IC50 values were obtained by fitting the data to the general dose-response equation.

Sequence of Human TASK-1 channels (O14649 whole entry): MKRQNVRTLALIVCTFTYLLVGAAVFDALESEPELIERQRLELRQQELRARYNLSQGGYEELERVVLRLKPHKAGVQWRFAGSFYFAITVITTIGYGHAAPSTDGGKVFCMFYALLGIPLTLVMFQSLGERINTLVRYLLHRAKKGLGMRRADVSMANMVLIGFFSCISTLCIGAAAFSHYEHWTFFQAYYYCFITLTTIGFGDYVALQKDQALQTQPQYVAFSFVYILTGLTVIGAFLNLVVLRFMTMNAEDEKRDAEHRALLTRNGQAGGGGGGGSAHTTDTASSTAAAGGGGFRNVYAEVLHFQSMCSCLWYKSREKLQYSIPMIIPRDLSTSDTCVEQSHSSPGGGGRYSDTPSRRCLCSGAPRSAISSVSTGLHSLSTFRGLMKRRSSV

Compound | inhibition at 5 µM
CC[C@@H](NC(=O)c1cc(C(=O)NCc2ccc3cc[nH]c3c2)n2c1COCC2)c1ccccc1 [16je, 3,4-Dihydro-1H-pyrrolo[2,1-c][1,4]oxazine-6,8-dicarboxylic acid 6-[(1H-indol-6-ylmethyl)-amide] 8-[((R)-1-phenyl-propyl)-amide]] | 91%

Same assay, conditions: human TASK-1 expressed in Xenopus oocytes, room temperature; read-out: IC50 value for TASK-1 inhibition

Compound | IC50
CCC(NC(=O)c1cc(C(=O)N[C@H](CC)c2ccccc2)c2n1CCOC2)c1cnc(OC)nc1 (single isomer, unassigned; diastereomer 2) [16hv] | 0.76 µM
5,6,7,8-Tetrahydro-indolizine-1,3-dicarboxylic acid 3-[(3,5-dimethyl- isoxazol-4-yl)-amide] 1-[((R)-1-phenyl-propyl)-amide] [16nd] | 0.21 µM
CCC(NC(=O)c1cc(C(=O)N2CCC[C@@H]2C)n2c1COCC2)c1ncc(C(F)(F)F)s1 (single isomer, unassigned; diastereomer 2) [16ce] | 0.28 µM
CC[C@H](NC(=O)c1cc(C(=O)N[C@H](C)c2ccc(F)cc2)n2c1COCC2)c1cnc(OC)cn1 [16dv, 3,4-Dihydro-1H-pyrrolo[2,1-c][1,4]oxazine-6,8-dicarboxylic acid 6-{[(R)-1-(4-fluoro-phenyl)-ethyl]-amide} 8-{[(S)-1-(5-methoxy-pyrazin-2-yl)-propyl]-amide}] | 0.19 µM
CC[C@@H](NC(=O)c1cc(C(=O)NC(C)c2cnccn2)c2n1CCOC2)c1ccc(F)cc1F (single isomer, unassigned; diastereomer 1) [16pl] | 0.43 µM
CC[C@@H](NC(=O)c1cc(C(=O)NCc2cncc(F)c2)n2c1CCCC2)c1ccccc1 [16nb, 5,6,7,8-Tetrahydro-indolizine-1,3-dicarboxylic acid 3-[(5-fluoro-pyridin-3-ylmethyl)-amide] 1-[((R)-1-phenyl-propyl)-amide]] | 0.46 µM
CC[C@@H](NC(=O)c1cc(C(=O)NC(C)c2cnccn2)n2c1COCC2)c1ccccc1 (single isomer, unassigned; diastereomer 1) [16if] | 1.1 µM
3,4-Dihydro-1H-pyrrolo[2,1-c][1,4]oxazine-6,8-dicarboxylic acid 8-[((R)- 1-phenyl-propyl)-amide] 6-{[(R)-1-(5-trifiuoromethyl-pyridin-3-yl)- propyl]-amide} [16hn] | 0.69 µM
3,4-Dihydro-1H-pyrrolo[2,1-c][1,4]oxazine-6,8-dicarboxylic acid 8-{[(R)- 1-(6-rnethoxy-pyridin-3-yl)-propy]-amide} 6-[((R)-1-phenyl-propyl)- amide] [16jo] | 0.25 µM
CC[C@@H](NC(=O)c1cc(C(=O)N2CCC[C@@H]2C)n2c1COCC2)c1ccc2c(c1)OC(F)(F)O2 [16bz, 6-((S)-2-Methyl-pyrrolidine-1-carbonyl)-3,4-dihydro-1H-pyrrolo[2,1-c][1,4]oxazine-8-carboxylic acid [(R)-1-(2,2-difluoro-benzo[1,3]dioxol-5-yl)-propyl]-amide] | 0.2 µM
CCC(NC(=O)c1cc(C(=O)N2CCC[C@@H]2C)n2c1COCC2)c1ccc(S(F)(F)(F)(F)F)cc1 (some centres unmarked) [16bf] | 0.74 µM
CC[C@@H](NC(=O)c1cc(C(=O)NC(C)c2cnccn2)c2n1CCOC2)c1ccccc1 (single isomer, unassigned; diastereomer 1) [16jw] | 2.86 µM
CC(NC(=O)c1cc(C(=O)N[C@@H](c2ccc(F)cc2)C(C)C)n2c1COCC2)c1cnccn1 (single isomer, unassigned; diastereomer 1) [16lq] | 0.7 µM
